Measurements: patent US20020137929A1, “1 - (3-heterocyclylphenyl) isothiourea, -isourea, -guanidine and -amidine herbicidal agents” (Intellectual Property Department, BASF Aktiengesellschaft, priority 1998, published 2002)

Assays:
SETVI (Foxtail, Green) [1] = test: Postemergence herbicidal evaluation; format: in vivo, Setaria viridis
Summary of the method: (§1)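 First, seedlings were raised for around two weeks. Next, test material in 50/50 acetone/water containing 0.5% TWEEN 20 was sprayed through a nozzle at 40 psi, equivalent to about 0.0156–0.500 kg/ha. Finally, after 4–5 weeks in the greenhouse, plants were rated 0–9.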

ECHCG (Barnyardgrass) = test: Postemergence herbicidal evaluation; format: in vivo, Echinochloa crus-galli
Summary of the method: as §1

ABUTH (Velvetleaf) [2] = test: Preemergence herbicidal evaluation; format: in vivo, Abutilon theophrasti; conditions: rated 4-5 weeks after treatment
Summary of the method: (§2)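 Greenhouse preemergence test: seed-soil mix sown on ~1 inch soil; aqueous acetone spray at equivalent of ~0.0156–0.500 kg/ha; greenhouse-held and watered; scored 0–9 visually at 4–5 weeks.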

[3] = test system: GLXMAW (Soybean, Williams); test: Postemergence herbicidal evaluation; format: in vivo, Glycine max, (L.) Merr. cv Williams
Summary of the method: as §1

CYPIR (Rice Flatsedge) = test: Postemergence weed control under flooded paddy conditions; format: in vivo, Cyperus iria; conditions: postemergence weeds, 3-4 weeks after treatment
Summary of the method: (§3)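 Weeds 3 to 5 cm tall and rice seedlings at the 1.5 to 2.5 leaf stage were flooded, with water held 1.5 to 3 cm above the soil. Compounds in 50/50 v/v aqueous/acetone went into the flood water at about 0.0313 to 0.500 kg/ha. Visual 0-9 ratings versus control were made 3 to 4 weeks later.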

MOOVA (Monochoria) = test: Preemergence weed control under flooded paddy conditions; format: in vivo, Monochoria vaginalis; conditions: rated 3-4 weeks after treatment
Summary of the method: (§4)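 Using flooded silt loam (water 1.5 to 3 cm deep), seeds sown in the top 0.5 cm were exposed preemergence to compound pipetted into the flood at about 0.0313 to 0.500 kg/ha. Effects were scored 0-9 by eye three to four weeks later.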

ABUTH (Velvetleaf) [4] = test: Postemergence herbicidal evaluation; format: in vivo, Abutilon theophrasti
Summary of the method: as §1

ORYSAT (Rice, Tebonnet) = test: Postemergence herbicidal evaluation; format: in vivo, Oryza sativa, (L.) Tebonnet
Summary of the method: as §1

[5] = test system: SAGPY (Arrowhead (Pygmaea)); test: Preemergence weed control under flooded paddy conditions; format: in vivo, Sagittaria pygmaea; conditions: rated 3-4 weeks after treatment
Summary of the method: as §4

AMBEL (Ragweed, Common) = test: Postemergence herbicidal evaluation; format: in vivo, Ambrosia artemisifolia
Summary of the method: as §1

[6] = test system: SAGPY (Arrowhead (Pygmaea)); test: Postemergence weed control under flooded paddy conditions; format: in vivo, Sagittaria pygmaea; conditions: postemergence weeds, 3-4 weeks after treatment
Summary of the method: as §3

CASOB (Sicklepod) = test: Preemergence herbicidal evaluation; format: in vivo, Cassia obtusifolia; conditions: rated 4-5 weeks after treatment
Summary of the method: as §2

[7] = test system: TRZAWR (Wheat, Winter, cv Riband); test: Postemergence herbicidal evaluation; format: in vivo, Triticum aestivum
Summary of the method: as §1

SETVI (Foxtail, Green) [8] = test: Preemergence herbicidal evaluation; format: in vivo, Setaria viridis; conditions: rated 4-5 weeks after treatment
Summary of the method: as §2

## Cn1c(C(F)(F)F)cc(=O)n(-c2cc(N=C3SCC(=O)N3CCC(=O)O)c(Cl)cc2F)c1=O [Compound 30, 2-{{2-Chloro-5-[3,6-dihydro-3-methyl-2,6-dioxo-4-(trifluoromethyl)-1(2H)-pyrimidinyl]-4-fluorophenyl}imino}-4-oxo-3-thiazolidinepropionic acid]
SETVI (Foxtail, Green) [1]; Rate 0.0158 kg/ha
  Postemergence herbicidal rating SETVI: 0.0
SETVI (Foxtail, Green) [1]; Rate 0.0315 kg/ha
  Postemergence herbicidal rating SETVI: 0.0
SETVI (Foxtail, Green) [1]; Rate 0.0630 kg/ha
  Postemergence herbicidal rating SETVI: 0.0
ECHCG (Barnyardgrass); Rate 0.0158 kg/ha
  Postemergence herbicidal rating ECHCG: 0.0
ECHCG (Barnyardgrass); Rate 0.0315 kg/ha
  Postemergence herbicidal rating ECHCG: 0.0
ECHCG (Barnyardgrass); Rate 0.0630 kg/ha
  Postemergence herbicidal rating ECHCG: 0.0
ABUTH (Velvetleaf) [2]; rate 0.0313 kg/ha
  Preemergence herbicidal rating ABUTH: 9.0
ABUTH (Velvetleaf) [2]; rate 0.0625 kg/ha
  Preemergence herbicidal rating ABUTH: 9.0
ABUTH (Velvetleaf) [2]; rate 0.1250 kg/ha
  Preemergence herbicidal rating ABUTH: 9.0
ABUTH (Velvetleaf) [2]; rate 0.2500 kg/ha
  Preemergence herbicidal rating ABUTH: 9.0
[3]; Rate 0.0158 kg/ha
  Postemergence herbicidal rating GLXMAW: 6.5
[3]; Rate 0.0315 kg/ha
  Postemergence herbicidal rating GLXMAW: 6.5
[3]; Rate 0.0630 kg/ha
  Postemergence herbicidal rating GLXMAW: 6.5
CYPIR (Rice Flatsedge); rate 0.1250 kg/ha
  Herbicidal rating CYPIR: 2.0
CYPIR (Rice Flatsedge); rate 0.2500 kg/ha
  Herbicidal rating CYPIR: 4.5
MOOVA (Monochoria); 0.1250 kg/ha
  Herbicidal rating MOOVA: 1.5
MOOVA (Monochoria); 0.2500 kg/ha
  Herbicidal rating MOOVA: 4.5
ABUTH (Velvetleaf) [4]; Rate 0.0158 kg/ha
  Postemergence herbicidal rating ABUTH: 3.0
ABUTH (Velvetleaf) [4]; Rate 0.0315 kg/ha
  Postemergence herbicidal rating ABUTH: 9.0
ABUTH (Velvetleaf) [4]; Rate 0.0630 kg/ha
  Postemergence herbicidal rating ABUTH: 9.0
ORYSAT (Rice, Tebonnet); Rate 0.0158 kg/ha
  Postemergence herbicidal rating ORYSAT: 2.0
ORYSAT (Rice, Tebonnet); Rate 0.0315 kg/ha
  Postemergence herbicidal rating ORYSAT: 2.5
ORYSAT (Rice, Tebonnet); Rate 0.0630 kg/ha
  Postemergence herbicidal rating ORYSAT: 3.5
[5]; 0.1250 kg/ha
  Herbicidal rating SAGPY: 0.0
[5]; 0.2500 kg/ha
  Herbicidal rating SAGPY: 2.0
AMBEL (Ragweed, Common); Rate 0.0158 kg/ha
  Postemergence herbicidal rating AMBEL: 0.0
AMBEL (Ragweed, Common); Rate 0.0315 kg/ha
  Postemergence herbicidal rating AMBEL: 0.0
AMBEL (Ragweed, Common); Rate 0.0630 kg/ha
  Postemergence herbicidal rating AMBEL: 1.0
[6]; rate 0.1250 kg/ha
  Herbicidal rating SAGPY: 0.0
[6]; rate 0.2500 kg/ha
  Herbicidal rating SAGPY: 2.0
CASOB (Sicklepod); rate 0.0313 kg/ha
  Preemergence herbicidal rating CASOB: 0.0
CASOB (Sicklepod); rate 0.0625 kg/ha
  Preemergence herbicidal rating CASOB: 0.0
CASOB (Sicklepod); rate 0.1250 kg/ha
  Preemergence herbicidal rating CASOB: 1.0
CASOB (Sicklepod); rate 0.2500 kg/ha
  Preemergence herbicidal rating CASOB: 1.0
[7]; Rate 0.0158 kg/ha
  Postemergence herbicidal rating TRZAWR: 4.0
[7]; Rate 0.0315 kg/ha
  Postemergence herbicidal rating TRZAWR: 4.5
[7]; Rate 0.0630 kg/ha
  Postemergence herbicidal rating TRZAWR: 5.5
SETVI (Foxtail, Green) [8]; rate 0.0313 kg/ha
  Preemergence herbicidal rating SETVI: 0.0
SETVI (Foxtail, Green) [8]; rate 0.0625 kg/ha
  Preemergence herbicidal rating SETVI: 0.0
SETVI (Foxtail, Green) [8]; rate 0.1250 kg/ha
  Preemergence herbicidal rating SETVI: 7.0
SETVI (Foxtail, Green) [8]; rate 0.2500 kg/ha
  Preemergence herbicidal rating SETVI: 9.0

## Cn1c(C(F)(F)F)cc(=O)n(-c2cc(N=C3SCC(=O)N3CCC(=O)O)c(Cl)cc2F)c1=O [Compound 31, 2-{{2-Chloro-5-[3,6-dihydro-3-methyl-2,6-dioxo-4-(trifluoromethyl)-1(2H)-pyrimidinyl]-4-fluoro-phenyl}imino}-4-oxo-3-thiazolidinepropionic acid]
SETVI (Foxtail, Green) [1]; Rate 0.0158 kg/ha
  Postemergence herbicidal rating SETVI: 0.0
SETVI (Foxtail, Green) [1]; Rate 0.0315 kg/ha
  Postemergence herbicidal rating SETVI: 0.0
SETVI (Foxtail, Green) [1]; Rate 0.0630 kg/ha
  Postemergence herbicidal rating SETVI: 7.0
ECHCG (Barnyardgrass); Rate 0.0158 kg/ha
  Postemergence herbicidal rating ECHCG: 0.0
ECHCG (Barnyardgrass); Rate 0.0315 kg/ha
  Postemergence herbicidal rating ECHCG: 0.0
ECHCG (Barnyardgrass); Rate 0.0630 kg/ha
  Postemergence herbicidal rating ECHCG: 5.0
ABUTH (Velvetleaf) [2]; rate 0.0625 kg/ha
  Preemergence herbicidal rating ABUTH: 0.0
ABUTH (Velvetleaf) [2]; rate 0.1250 kg/ha
  Preemergence herbicidal rating ABUTH: 9.0
ABUTH (Velvetleaf) [2]; rate 0.2500 kg/ha
  Preemergence herbicidal rating ABUTH: 9.0
[3]; Rate 0.0158 kg/ha
  Postemergence herbicidal rating GLXMAW: 6.5
[3]; Rate 0.0315 kg/ha
  Postemergence herbicidal rating GLXMAW: 6.5
[3]; Rate 0.0630 kg/ha
  Postemergence herbicidal rating GLXMAW: 7.0
CYPIR (Rice Flatsedge); rate 0.0625 kg/ha
  Herbicidal rating CYPIR: 0.0
CYPIR (Rice Flatsedge); rate 0.1250 kg/ha
  Herbicidal rating CYPIR: 0.0
CYPIR (Rice Flatsedge); rate 0.2500 kg/ha
  Herbicidal rating CYPIR: 2.5
MOOVA (Monochoria); 0.0625 kg/ha
  Herbicidal rating MOOVA: 0.0
MOOVA (Monochoria); 0.1250 kg/ha
  Herbicidal rating MOOVA: 0.0
MOOVA (Monochoria); 0.2500 kg/ha
  Herbicidal rating MOOVA: 2.5
ABUTH (Velvetleaf) [4]; Rate 0.0158 kg/ha
  Postemergence herbicidal rating ABUTH: 9.0
ABUTH (Velvetleaf) [4]; Rate 0.0315 kg/ha
  Postemergence herbicidal rating ABUTH: 9.0
ABUTH (Velvetleaf) [4]; Rate 0.0630 kg/ha
  Postemergence herbicidal rating ABUTH: 9.0
ORYSAT (Rice, Tebonnet); Rate 0.0158 kg/ha
  Postemergence herbicidal rating ORYSAT: 3.5
ORYSAT (Rice, Tebonnet); Rate 0.0315 kg/ha
  Postemergence herbicidal rating ORYSAT: 4.0
ORYSAT (Rice, Tebonnet); Rate 0.0630 kg/ha
  Postemergence herbicidal rating ORYSAT: 5.5
[5]; 0.0625 kg/ha
  Herbicidal rating SAGPY: 0.0
[5]; 0.1250 kg/ha
  Herbicidal rating SAGPY: 0.0
[5]; 0.2500 kg/ha
  Herbicidal rating SAGPY: 0.0
AMBEL (Ragweed, Common); Rate 0.0158 kg/ha
  Postemergence herbicidal rating AMBEL: 0.0
AMBEL (Ragweed, Common); Rate 0.0315 kg/ha
  Postemergence herbicidal rating AMBEL: 2.0
AMBEL (Ragweed, Common); Rate 0.0630 kg/ha
  Postemergence herbicidal rating AMBEL: 7.0
[6]; rate 0.0625 kg/ha
  Herbicidal rating SAGPY: 0.0
[6]; rate 0.1250 kg/ha
  Herbicidal rating SAGPY: 0.0
[6]; rate 0.2500 kg/ha
  Herbicidal rating SAGPY: 0.0
CASOB (Sicklepod); rate 0.0625 kg/ha
  Preemergence herbicidal rating CASOB: 0.0
CASOB (Sicklepod); rate 0.1250 kg/ha
  Preemergence herbicidal rating CASOB: 2.0
CASOB (Sicklepod); rate 0.2500 kg/ha
  Preemergence herbicidal rating CASOB: 1.0
[7]; Rate 0.0158 kg/ha
  Postemergence herbicidal rating TRZAWR: 5.0
[7]; Rate 0.0315 kg/ha
  Postemergence herbicidal rating TRZAWR: 5.5
[7]; Rate 0.0630 kg/ha
  Postemergence herbicidal rating TRZAWR: 6.5
SETVI (Foxtail, Green) [8]; rate 0.0625 kg/ha
  Preemergence herbicidal rating SETVI: 1.0
SETVI (Foxtail, Green) [8]; rate 0.1250 kg/ha
  Preemergence herbicidal rating SETVI: 9.0
SETVI (Foxtail, Green) [8]; rate 0.2500 kg/ha
  Preemergence herbicidal rating SETVI: 9.0
